The target of assay [1] is T1, LTD4 evoked contractions of guinea pig ileum (Cavia porcellus, UniProt Q2NNR5).
T1 construct: A section of terminal ileum was removed, the lumen cleaned, and the tissue divided into 2.5 cm. segments; from tissue; host or cells: terminal ileum of male Hartley guinea pigs
T1 sequence (Q2NNR5 1-340): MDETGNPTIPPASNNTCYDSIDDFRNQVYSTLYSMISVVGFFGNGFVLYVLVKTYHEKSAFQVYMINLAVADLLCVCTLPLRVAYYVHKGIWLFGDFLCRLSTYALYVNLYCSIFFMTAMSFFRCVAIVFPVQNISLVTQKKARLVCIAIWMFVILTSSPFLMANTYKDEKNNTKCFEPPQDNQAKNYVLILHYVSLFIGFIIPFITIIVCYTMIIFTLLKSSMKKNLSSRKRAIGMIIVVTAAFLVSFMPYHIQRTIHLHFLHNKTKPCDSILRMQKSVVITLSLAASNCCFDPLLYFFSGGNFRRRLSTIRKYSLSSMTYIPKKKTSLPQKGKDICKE
The experiment in a line: LTD4 antagonism, cumulative concentration-response curves (Schild pA2). It is filed as cell-based. As to conditions: 30 minute incubation, negative log of KB. The procedure: For some of the drugs in this series a more detailed analysis of LTD4 antagonism was made. In these experiments, cumulative concentration-response curves were obtained to LTD4 in guinea pig ileum and trachea. This was followed by a 30 minute incubation with various concentrations of the experimental drug. The concentration response curve to LTD4 was then repeated in the presence of the antagonist. Only one concentration of antagonist was used on a single tissue. KB values were calculated by the method of Furchgott [Ann. N.Y. Acad. Sci., 139, 553 (1967)] using the following equation. [formula]
Dose ratio refers to the concentration of agonist required to elicit 50 percent of the maximal response (ED50) in the presence of the antagonist divided by the ED50 in the absence of the antagonist. Calculations were performed with the aid of a computer and a digital plotter.

The test system of assay [2] is LTD4 evoked contractions of guinea pig ileum. The experiment in a line: Percent inhibition of LTD4 evoked ileal contractions (single submaximal LTD4 response, 5 minute drug exposure). The assay is classed as cell-based, guinea pig (male, Hartley). The conditions noted are these: Cavia porcellus; for inhibition at 1 µM: Compound concentration 1 × 10^-6 M; for inhibition at 0.1 µM: Compound concentration 1 × 10^-7 M; for inhibition at 0.3 µM: Compound concentration 3 × 10^-7 M; for inhibition at 3 µM: Compound concentration 3 × 10^-6 M; for inhibition at 0.03 µM: Compound concentration 3 × 10^-8 M; for inhibition at 0.01 µM: 5 min, Compound concentration 1 × 10^-8. The procedure: Male, Hartley guinea pigs weighing 200-450 grams were killed by decapitation. A section of terminal ileum was removed, the lumen cleaned, and the tissue divided into 2.5 cm. segments. The ilea were mounted in 10 ml. tissue baths containing Krebs-bicarbonate solution of the following composition in mmoles/-liter: KCl, 4.6; CaCl2 ·2H2 O, 1.2; KH2 PO4, 1.2; MgSO4 ·7H2 O, 1.2; NaCl, 118.2; NaHCO3, 24.8; and dextrose, 10.0. The bath fluid was maintained at 37° C. and aerated with 95 percent oxygen and 5 percent CO2. In addition, the buffer contained 1×10^-6 M atropine to reduce ileal spontaneous activity. Isometric measurements were made with a Grass FTO3C force-displacement transducer and recorded on a Grass polygraph as change in grams of force. A passive force of 0.5 g. was applied to the tissues. After an appropriate equilibration period, single submaximal control responses to pure LTD4 were obtained. Following a five minute exposure of the ileum to an experimental drug, the control concentration of LTD was added to the tissue bath. The response of the ileum to LTD4 in the presence of the drug was compared to the response in the absence of the drug.

In general, pA2 refers to the negative logarithm of the molar antagonist concentration that doubles the agonist concentration needed for the same response. What is called inhibition is the share of the control response that was lost under treatment. High values mean strong suppression, low ones little suppression. A word on the Kb: it is the equilibrium dissociation constant of an antagonist, usually derived from a functional assay. A high value points to a less potent antagonist.

The molecule `CCCc1c(COc2ccc3c(=O)cc(C(=O)O)oc3c2CCC)ccc(C(C)=O)c1O` [Example 10, 7-(4-Acetyl-3-hydroxy-2-propylbenzyloxy)-4-oxo-8-propyl-4H-1-benzopyran-2-carboxylic acid] came in with a pA2 in assay [1] of 7.42. In assay [2], the inhibition at 1 µM amounted to 97%, the inhibition at 0.1 µM worked out at 62% and testing at 0.3 µM gave an inhibition of 86%.

On to `CCCc1c(COc2ccc(C(=O)O)cc2)ccc(C(C)=O)c1O` [Example 11, 4-(4-Acetyl-3-hydroxy-2-propylbenzyloxy)benzoic acid], for which the Kb in assay [1] was 234 nM. In assay [2], this molecule showed an inhibition at 1 µM of 75% and an inhibition at 3 µM of 94%.

The molecule `CCCc1c(COc2ccc(CC(=O)O)cc2)ccc(C(C)=O)c1O` [Example 12, 4-(4-Acetyl-3-hydroxy-2-propylbenzyloxy)phenylacetic acid] had a Kb in assay [1] of 60.3 nM. In assay [2], the inhibition at 1 µM is 91%, the inhibition at 0.1 µM was found to be 66%, 0.3 µM produced 77% inhibition and the inhibition at 0.03 µM was 37%.

As for `CCCc1c(COc2ccc(C(=O)O)c(O)c2)ccc(C(C)=O)c1O` [Example 13, 4-(4-Acetyl-3-hydroxy-2-propylbenzyloxy)-2-hydroxybenzoic acid], the Kb in assay [1] was 26.9 nM. Besides, in assay [2], testing at 0.01 µM gave an inhibition of 30%, the inhibition at 1 µM was 97%, testing at 0.1 µM gave an inhibition of 69% and at 0.3 µM the inhibition was 85%. This molecule also showed an inhibition at 0.03 µM in assay [2] of 59%.

With `CCCc1c(COc2cccc(C(=O)O)c2)ccc(C(C)=O)c1O` [Example 14, 3-(4-Acetyl-3-hydroxy-2-propylbenzyloxy)benzoic acid], the Kb in assay [1] was 1780 nM. In assay [2], this molecule showed an inhibition at 1 µM of 31% and an inhibition at 3 µM of 67%.

`CCCc1c(COc2ccc(CCC(=O)O)cc2)ccc(C(C)=O)c1O` [Example 15, 3-[4-(4-Acetyl-3-hydroxy-2-propylbenzyloxy)phenyl]propionic acid]: the Kb in assay [1] is 26.3 nM. In assay [2], this molecule came in with an inhibition at 1 µM of 79%, an inhibition at 0.1 µM of 59% and an inhibition at 0.3 µM of 76%.

With `CCCc1c(COc2ccc(OCC(=O)O)cc2)ccc(C(C)=O)c1O` [Example 16, 4-(4-Acetyl-3-hydroxy-2-propylbenzyloxy)phenoxyacetic acid], in assay [1], the antagonist dissociation constant (Kb) is 87.1 nM. In addition, in assay [2], the inhibition at 1 µM came to 88%, the inhibition at 0.1 µM was 54% and the inhibition at 0.3 µM was 88%.

For the molecule `CCCc1c(COc2ccc(C(=O)O)cc2)ccc(C(=O)c2ccccc2)c1O` [Example 17, 4-(4-Benzoyl-3-hydroxy-2-propylbenzyloxy)benzoic acid], the Kb in assay [1] is 4470 nM. Also, in assay [2], 1 µM produced 5% inhibition and the inhibition at 3 µM is 35%.

In turn, `CCCCC(=O)c1ccc(COc2ccc(CC(=O)O)cc2)c(CCC)c1O` [Example 18, 4-(4-Pentanoyl-3-hydroxy-2-propylbenzyloxy)phenylacetic acid] showed a Kb in assay [1] of 2090 nM. Moreover, in assay [2], the inhibition at 1 µM turned out to be 21% and 3 µM produced 65% inhibition.

As to `CCCc1c(COc2ccc(-c3nnn[nH]3)cc2)ccc(C(C)=O)c1O` [Example 32, 5-[4-(4-Acetyl-3-hydroxy-2-propylbenzyloxy)phenyl]tetrazole], the Kb in assay [1] was 7.76 nM. Besides, in assay [2], the inhibition at 1 µM came out at 94%, the inhibition at 0.1 µM turned out to be 83% and the inhibition at 0.3 µM worked out at 94%.

With `CCCc1c(COc2ccc(Cc3nnn[nH]3)cc2)ccc(C(C)=O)c1O` [Example 33, 5-[4-(4-Acetyl-3-hydroxy-2-propylbenzyloxy)benzyl]-tetrazole], the Kb in assay [1] is 7.59 nM. In assay [2], this molecule came in with an inhibition at 0.01 µM of 31%, an inhibition at 1 µM of 100%, an inhibition at 0.1 µM of 92% and an inhibition at 0.3 µM of 94%. In addition, at 0.03 µM the inhibition in assay [2] was 81%.

These data come from patent US5393768A, “Leukotriene antagonists” (Eli Lilly and Company, priority 1993, dated 1995).
